We go through 7 compounds from ChEMBL document CHEMBL3352127, “Synthesis of oleanolic acid derivatives: In vitro, in vivo and in silico studies for PTP-1B inhibition” (Eur J Med Chem, 2014).

The test system of assay [1] is Rattus norvegicus. The assay is described as follows: Antidiabetic activity in NIDDM Wistar rat model assessed as reduction blood glucose level at 50 mg/kg, po measured after 3 hrs post dose by glucometry. Set-up: scale not given: the % may be the effect or the level left. In kind it is functional.
Assay [2] deals with T1, Tyrosine-protein phosphatase non-receptor type 1 (Homo sapiens, UniProt P18031).
T1 sequence (P18031 whole entry): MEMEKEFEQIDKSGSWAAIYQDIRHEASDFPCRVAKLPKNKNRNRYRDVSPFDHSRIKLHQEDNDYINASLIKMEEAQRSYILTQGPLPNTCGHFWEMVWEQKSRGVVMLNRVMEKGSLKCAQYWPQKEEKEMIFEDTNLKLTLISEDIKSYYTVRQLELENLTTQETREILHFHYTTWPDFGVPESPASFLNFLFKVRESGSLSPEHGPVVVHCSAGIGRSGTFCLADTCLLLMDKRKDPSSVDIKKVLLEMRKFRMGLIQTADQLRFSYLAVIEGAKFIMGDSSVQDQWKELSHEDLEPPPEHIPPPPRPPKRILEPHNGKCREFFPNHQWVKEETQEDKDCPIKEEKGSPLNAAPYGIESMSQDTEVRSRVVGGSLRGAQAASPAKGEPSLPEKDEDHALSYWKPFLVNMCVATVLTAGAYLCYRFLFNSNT
Nature of the assay: Non-competitive inhibition of purified human GST-tagged PTP-1B using p-nitrophenylphosphate as substrate by double-reciprocal plot method.

Assay [3] deals with Rattus norvegicus. The assay is described as follows: Antidiabetic activity in NIDDM Wistar rat model assessed as reduction blood glucose level at 50 mg/kg, po measured after 1 hr post dose by glucometry. In kind it is functional, organism-based. The arrangement: dose 50 mg/kg.
Assay [4] has as its target T2, Tyrosine-protein phosphatase non-receptor type 2 (Homo sapiens, UniProt P17706).
T2 sequence (P17706 whole entry): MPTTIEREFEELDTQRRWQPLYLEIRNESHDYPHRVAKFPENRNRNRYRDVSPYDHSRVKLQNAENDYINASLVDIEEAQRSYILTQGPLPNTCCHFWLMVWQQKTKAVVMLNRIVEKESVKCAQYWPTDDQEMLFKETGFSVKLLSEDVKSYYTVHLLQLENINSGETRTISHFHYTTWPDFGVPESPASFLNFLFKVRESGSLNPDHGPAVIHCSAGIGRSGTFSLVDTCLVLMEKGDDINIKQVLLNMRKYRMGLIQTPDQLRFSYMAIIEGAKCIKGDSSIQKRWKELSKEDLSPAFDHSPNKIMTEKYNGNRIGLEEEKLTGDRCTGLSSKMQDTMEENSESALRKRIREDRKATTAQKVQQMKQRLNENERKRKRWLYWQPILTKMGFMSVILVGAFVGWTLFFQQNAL
Nature of the assay: Inhibition of TC-PTP (unknown origin) using p-nitrophenylphosphate as substrate by spectrophotometry.

For assay [5], the target named is T3, Low molecular weight phosphotyrosine protein phosphatase (Homo sapiens, UniProt P24666).
T3 sequence (P24666 whole entry): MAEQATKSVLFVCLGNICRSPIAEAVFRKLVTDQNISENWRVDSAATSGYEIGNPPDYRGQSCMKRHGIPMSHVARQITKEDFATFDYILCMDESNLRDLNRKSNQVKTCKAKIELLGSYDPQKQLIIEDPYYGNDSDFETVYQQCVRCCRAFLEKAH
Nature of the assay: Inhibition of human LMW-PTP IF1 using p-nitrophenylphosphate as substrate by spectrophotometry.

The target in assay [6] is T3, Low molecular weight phosphotyrosine protein phosphatase. The assay is described as follows: Inhibition of human LMW-PTP IF2 using p-nitrophenylphosphate as substrate by spectrophotometry.
Assay [7] addresses T1, Tyrosine-protein phosphatase non-receptor type 1. Nature of the assay: Inhibition of purified human GST-tagged PTP-1B using p-nitrophenylphosphate as substrate by spectrophotometry.
The target is the same in assay [8]. The assay is described as follows: Mixed-type inhibition of purified human GST-tagged PTP-1B using p-nitrophenylphosphate as substrate by double-reciprocal plot method.

The source made the active and inactive calls. The rule behind the calls is not given here.

As a reminder, the Ki is a measure of affinity in units of concentration, obtained from inhibition or displacement. The IC50 is the concentration at which inhibition is half-maximal. For `CCO[C@H]1CC[C@]2(C)[C@H]3CC=C4[C@@H]5CC(C)(C)CC[C@]5(C(=O)O)CC[C@@]4(C)[C@]3(C)CC[C@H]2C1(C)C`, the Activity in assay [1] is given as more than 20%. Besides, in assay [2], the Ki was found to be 4.8 µM. For the same compound, the result in assay [3] was inactive. Also, the IC50 in assay [4] was 26 µM; in assay [5], 16.4 µM; in assay [6] it was 47.4 µM; in assay [7] it was 5.3 µM.
On to `CC1(C)CC[C@]2(C(=O)O)CC[C@]3(C)C(=CC[C@@H]4[C@@]5(C)CC[C@H](OC(=O)/C=C/c6ccccc6)C(C)(C)[C@@H]5CC[C@]43C)[C@@H]2C1`, for which the outcome in assay [1] and in assay [3] was Active. The IC50 amounted to 11.8 µM in assay [4], 6.9 µM in assay [5], 12.3 µM in assay [6] and 6.1 µM in assay [7]. For the same compound, the affinity in assay [8], expressed as Ki, was 2100 nM.
`CCCO[C@H]1CC[C@]2(C)[C@H]3CC=C4[C@@H]5CC(C)(C)CC[C@]5(C(=O)O)CC[C@@]4(C)[C@]3(C)CC[C@H]2C1(C)C` yielded an IC50 in assay [7] of 36.5 µM.
Same read-out and setting: the figure for `CC(=O)O[C@H]1CC[C@]2(C)[C@H]3CC=C4[C@@H]5CC(C)(C)CC[C@]5(C(=O)O)CC[C@@]4(C)[C@]3(C)CC[C@H]2C1(C)C` [ACETYL OLEANOLIC ACID] is 21.5 µM.
On the same count and under the same terms, the figure for `CC1(C)CC[C@]2(C(=O)O)CC[C@]3(C)C(=CC[C@@H]4[C@@]5(C)CC[C@H](OC(=O)c6ccccc6)C(C)(C)[C@@H]5CC[C@]43C)[C@@H]2C1` is 16.2 µM; for `C/C=C/C(=O)O[C@H]1CC[C@]2(C)[C@H]3CC=C4[C@@H]5CC(C)(C)CC[C@]5(C(=O)O)CC[C@@]4(C)[C@]3(C)CC[C@H]2C1(C)C` it is 17.8 µM.
Still for that read-out and setting: as for `CO[C@H]1CC[C@]2(C)[C@H]3CC=C4[C@@H]5CC(C)(C)CC[C@]5(C(=O)O)CC[C@@]4(C)[C@]3(C)CC[C@H]2C1(C)C`, the figure is 8.6 µM.
